Laboratory results taken from ChEMBL document CHEMBL1201862, “PubChem BioAssay data set” (2004).
Active and inactive are the calls of the source.

Tests used:
[1] = target: T1, Rac GTPase-activating protein 1 (Homo sapiens, UniProt Q9H0H5); test: MgcRacGAP GTPase-activating activity inhibitors, confirmation, biochemical, ADP Hunter fluorescence, primary and confirmatory (AID 624330); assay type: functional
T1 sequence (Q9H0H5 whole entry): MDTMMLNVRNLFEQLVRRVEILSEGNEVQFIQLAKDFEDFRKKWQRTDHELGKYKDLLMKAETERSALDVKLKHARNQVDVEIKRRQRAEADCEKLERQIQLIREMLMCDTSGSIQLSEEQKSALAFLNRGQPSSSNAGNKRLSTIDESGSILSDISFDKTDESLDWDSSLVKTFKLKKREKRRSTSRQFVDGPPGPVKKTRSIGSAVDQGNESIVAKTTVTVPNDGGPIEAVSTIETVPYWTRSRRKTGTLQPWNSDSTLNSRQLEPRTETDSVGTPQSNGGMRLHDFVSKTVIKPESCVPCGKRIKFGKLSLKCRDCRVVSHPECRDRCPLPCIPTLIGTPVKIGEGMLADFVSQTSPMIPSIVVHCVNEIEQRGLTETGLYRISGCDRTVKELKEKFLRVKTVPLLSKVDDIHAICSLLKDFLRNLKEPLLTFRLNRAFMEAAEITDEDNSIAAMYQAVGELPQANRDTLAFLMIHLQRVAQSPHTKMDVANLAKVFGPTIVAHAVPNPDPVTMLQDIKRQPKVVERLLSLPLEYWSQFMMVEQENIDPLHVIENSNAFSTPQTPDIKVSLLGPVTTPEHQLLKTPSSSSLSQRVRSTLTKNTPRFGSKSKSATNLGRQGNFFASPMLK

cells = assay type: functional
Cytochrome P450 2C19 = Cytochrome P450 2C19 (Homo sapiens, UniProt P33261); test: Cytochrome panel assay with activity outcomes. Panel member name: p450-cyp2c19 Compounds with AC50 equal or less than 10 uM are considered active; assay type: functional
Sequence of Cytochrome P450 2C19 (P33261 whole entry): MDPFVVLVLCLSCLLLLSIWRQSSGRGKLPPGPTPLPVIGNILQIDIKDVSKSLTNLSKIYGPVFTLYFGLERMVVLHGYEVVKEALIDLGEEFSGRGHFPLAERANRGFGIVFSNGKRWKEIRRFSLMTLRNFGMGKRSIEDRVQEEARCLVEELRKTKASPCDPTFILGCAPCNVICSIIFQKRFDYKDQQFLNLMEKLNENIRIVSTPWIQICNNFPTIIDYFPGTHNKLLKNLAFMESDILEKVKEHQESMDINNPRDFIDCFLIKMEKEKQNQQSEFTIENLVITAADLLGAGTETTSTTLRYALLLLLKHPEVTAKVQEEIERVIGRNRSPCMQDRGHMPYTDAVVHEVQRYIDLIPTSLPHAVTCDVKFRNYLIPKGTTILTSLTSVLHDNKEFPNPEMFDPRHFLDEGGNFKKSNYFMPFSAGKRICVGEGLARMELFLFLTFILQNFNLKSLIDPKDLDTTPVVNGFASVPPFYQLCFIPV

Cytochrome P450 2C9 = Cytochrome P450 2C9 (Homo sapiens, UniProt P11712)
Sequence of Cytochrome P450 2C9 (P11712 whole entry): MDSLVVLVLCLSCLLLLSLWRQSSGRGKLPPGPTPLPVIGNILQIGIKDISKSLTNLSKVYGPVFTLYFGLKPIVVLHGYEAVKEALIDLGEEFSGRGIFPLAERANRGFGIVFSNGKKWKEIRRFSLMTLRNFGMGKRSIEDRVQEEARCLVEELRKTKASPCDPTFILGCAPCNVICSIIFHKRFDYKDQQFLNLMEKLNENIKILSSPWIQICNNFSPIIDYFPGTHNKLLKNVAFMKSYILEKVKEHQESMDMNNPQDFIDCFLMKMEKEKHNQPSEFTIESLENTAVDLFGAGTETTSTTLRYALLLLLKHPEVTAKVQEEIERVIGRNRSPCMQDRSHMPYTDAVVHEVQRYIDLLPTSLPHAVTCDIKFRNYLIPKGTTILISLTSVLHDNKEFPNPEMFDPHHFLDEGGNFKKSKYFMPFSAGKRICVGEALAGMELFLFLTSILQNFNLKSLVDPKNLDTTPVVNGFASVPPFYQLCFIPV

Cytochrome P450 2D6 = Cytochrome P450 2D6 (Homo sapiens, UniProt P10635);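 also: CYP2D6 member of a cytochrome P450 panel assay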
Sequence of Cytochrome P450 2D6 (P10635 whole entry): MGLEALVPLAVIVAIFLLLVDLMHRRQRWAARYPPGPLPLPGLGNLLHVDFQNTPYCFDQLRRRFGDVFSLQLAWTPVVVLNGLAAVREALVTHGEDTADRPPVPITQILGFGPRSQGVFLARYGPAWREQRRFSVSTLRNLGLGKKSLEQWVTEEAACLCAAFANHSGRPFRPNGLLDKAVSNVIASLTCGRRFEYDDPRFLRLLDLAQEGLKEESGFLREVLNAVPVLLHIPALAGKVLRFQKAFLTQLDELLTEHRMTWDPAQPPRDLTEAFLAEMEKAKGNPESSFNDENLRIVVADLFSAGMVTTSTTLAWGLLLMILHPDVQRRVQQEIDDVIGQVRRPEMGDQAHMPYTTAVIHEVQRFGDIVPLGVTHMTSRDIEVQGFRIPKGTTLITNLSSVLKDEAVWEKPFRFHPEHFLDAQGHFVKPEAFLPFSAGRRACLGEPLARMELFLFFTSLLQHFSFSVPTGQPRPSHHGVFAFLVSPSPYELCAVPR

Cytochrome P450 3A4 = Cytochrome P450 3A4 (Homo sapiens, UniProt P08684);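 also: CYP3A4 tested as one member of a cytochrome P450 panel screen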
Sequence of Cytochrome P450 3A4 (P08684 whole entry): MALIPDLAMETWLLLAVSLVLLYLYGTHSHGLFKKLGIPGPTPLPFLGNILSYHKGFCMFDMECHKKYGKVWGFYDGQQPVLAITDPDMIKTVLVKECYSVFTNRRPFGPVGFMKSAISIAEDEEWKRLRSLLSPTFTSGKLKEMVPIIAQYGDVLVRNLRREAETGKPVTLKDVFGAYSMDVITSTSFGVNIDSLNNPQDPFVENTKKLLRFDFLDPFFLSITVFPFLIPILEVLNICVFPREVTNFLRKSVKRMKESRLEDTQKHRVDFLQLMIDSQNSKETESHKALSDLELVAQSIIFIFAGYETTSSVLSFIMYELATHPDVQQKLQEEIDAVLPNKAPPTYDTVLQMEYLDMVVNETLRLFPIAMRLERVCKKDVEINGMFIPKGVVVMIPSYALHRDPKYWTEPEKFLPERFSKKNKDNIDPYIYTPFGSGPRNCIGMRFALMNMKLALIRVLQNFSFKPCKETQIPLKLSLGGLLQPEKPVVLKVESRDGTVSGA

[2] = cytotoxicity toward NIH3T3 fibroblasts, dose response, counter-screen, cell-based, ATP luminescence, mouse fibroblasts (AID 2010); assay type: functional;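 also: cells exposed to compound for about 90 hours before reading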
[3] = inhibitors of intracellular T. cruzi replication, confirmation, NIH3T3 host cells, beta-gal luminescence (AID 2044); assay type: functional, cell-based;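 also: intracellular parasites grown in NIH/3T3 mouse fibroblasts as host cells; luminescent beta-galactosidase reporter signal from transgenic T. cruzi replicating inside host cells; inhibitors lower the luminescence signal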
[4] = target: T2, Corticotropin-releasing factor receptor 2/Corticotropin-releasing factor-binding protein (Homo sapiens, UniProt P24387+Q13324); test: Dose Response confirmation of uHTS hits for small molecule antagonists of the CRF-binding protein and CRF-R2 receptor complex.; assay type: functional; settings: read-out: IC50_Mean
T2 sequence (Q13324 whole entry): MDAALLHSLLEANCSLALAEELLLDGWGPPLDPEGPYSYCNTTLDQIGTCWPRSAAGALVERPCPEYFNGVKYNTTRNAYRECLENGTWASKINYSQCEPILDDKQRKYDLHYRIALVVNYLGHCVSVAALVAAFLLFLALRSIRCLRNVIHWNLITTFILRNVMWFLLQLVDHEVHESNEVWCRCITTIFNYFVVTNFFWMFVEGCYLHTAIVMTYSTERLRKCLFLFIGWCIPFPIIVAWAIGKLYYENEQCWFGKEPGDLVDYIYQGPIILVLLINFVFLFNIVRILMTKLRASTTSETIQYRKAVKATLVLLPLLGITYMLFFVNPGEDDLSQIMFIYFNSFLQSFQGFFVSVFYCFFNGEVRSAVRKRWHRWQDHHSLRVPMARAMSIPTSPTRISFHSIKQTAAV
T2 sequence (P24387 whole entry): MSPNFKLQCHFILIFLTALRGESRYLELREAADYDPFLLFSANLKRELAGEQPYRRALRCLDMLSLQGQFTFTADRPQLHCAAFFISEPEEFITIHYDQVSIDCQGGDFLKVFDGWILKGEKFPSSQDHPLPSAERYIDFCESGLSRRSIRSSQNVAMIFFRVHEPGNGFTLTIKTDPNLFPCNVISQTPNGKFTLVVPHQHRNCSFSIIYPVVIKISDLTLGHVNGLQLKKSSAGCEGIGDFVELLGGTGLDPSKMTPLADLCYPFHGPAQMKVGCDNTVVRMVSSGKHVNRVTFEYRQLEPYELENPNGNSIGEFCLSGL

[5] = target: T2, Corticotropin-releasing factor receptor 2/Corticotropin-releasing factor-binding protein; test: activators of CRF receptor 2 with binding protein – uHTS hits, confirmation (AID 602473); assay type: functional; settings: read-out: EC50_Mean

**Q.** What does the source list for `O=C(COc1ccc(Nc2ccccc2)cc1)OCC(=O)N1CCCCC1`?
**A.** IC50 [1]: 98.2 µM (active); IC50 (cells): 2.49 µM (active)

**Q.** With `Cc1cc(C)c(OCCCCN2CCC(C)CC2)c(Br)c1` as the compound, how does the IC50 [1] read?
**A.** The IC50 was 212 µM (active).

**Q.** With `COc1ccc(-c2cnnc(CCCn3ccnc3-c3ccccc3)n2)cc1` as the compound, how does the AC50 (Cytochrome P450 2C19; read-out: AC50) read?
**A.** The AC50 was 7.94 µM (inconclusive).

**Q.** What about the AC50 (Cytochrome P450 2C9) of the same compound?
**A.** The AC50 was 0.0126 µM (inconclusive).

**Q.** With `CC(=O)n1c(COS(C)(=O)=O)nc2ccccc21` as the compound, how does the AC50 (Cytochrome P450 2D6) read?
**A.** Its AC50 is 5.01 µM (inconclusive).

**Q.** And the AC50 (Cytochrome P450 3A4)?
**A.** The AC50 was 3.16 µM (inconclusive).

**Q.** With `Clc1cc(Br)ccc1OCCOCCN1CCCC1` as the compound, how does the EC50 [2] read?
**A.** The EC50 was > 60 µM (not active).

**Q.** And the IC50 [1]?
**A.** The IC50 was 135 µM (active).

**Q.** What about the EC50 [3] of the same compound?
**A.** The EC50 was 1.46 µM (active).

**Q.** For `Cc1cc(OCc2ccc([N+](=O)[O-])cc2)c2c3c(c(=O)oc2c1)CCCC3`, which AC50 (Cytochrome P450 2D6) is on record?
**A.** Its AC50 is 3.16 µM (inconclusive).

**Q.** And the AC50 (Cytochrome P450 3A4)?
**A.** Its AC50 is 2.82 µM (inconclusive).

**Q.** For `CCC[C@@H]1C[C@@]1(CCC)C(NS(=O)(=O)c1cccc2cccnc12)c1ccc(Cl)cc1` (some centres not stated), which AC50 (Cytochrome P450 2D6) is on record?
**A.** Its AC50 is 39.8 µM (inconclusive).

**Q.** With `O=C(CCCC(=O)c1ccccc1)Nc1ccc(O)cc1` as the compound, how does the IC50 [1] read?
**A.** Its IC50 is 15.8 µM (active).

**Q.** Which results are given for `O=c1c2ccccc2nc(N2CCCC2)n1-c1ccc(Cl)cc1`?
**A.** AC50 (Cytochrome P450 2D6): 10 µM (inconclusive); IC50 [4]: > 47.1 µM (inactive); EC50 [5]: > 53 µM (inactive); AC50 (Cytochrome P450 2C19; read-out: AC50): 1.26 µM (inconclusive)

**Q.** For `CC1CCN(CCc2nc3cc(NC(=O)NC4CCCCC4)ccc3n2C)CC1`, which AC50 (Cytochrome P450 2D6) is on record?
**A.** The AC50 was 25.1 µM (inconclusive).

**Q.** What does the source list for `CCc1ccc(N(C(=O)CNC(=O)c2cccs2)C(C(=O)NC(C)(C)C)c2cc(OC)c(OC)c(OC)c2)cc1` (configuration not stated)?
**A.** AC50 (Cytochrome P450 2C19; read-out: AC50): 0.00794 µM (inconclusive); AC50 (Cytochrome P450 2C9): 28.2 µM (inconclusive)

**Q.** With `CC(=O)Nc1cccc(-c2csc(NCc3ccccc3)n2)c1` as the compound, how does the IC50 [1] read?
**A.** The IC50 was 65 µM (active).

**Q.** For `CCOC(=O)c1[nH]c(COC(=O)CCOc2ccccc2OC)c(C(=O)OCC)c1C`, which AC50 (Cytochrome P450 2D6) is on record?
**A.** The AC50 was 15.8 µM (inconclusive).

**Q.** Which IC50 [4] does the source give for `O=C(Oc1ccccc1)c1ccc(NC(=O)c2ccco2)cc1` here?
**A.** Its IC50 is > 47.1 µM (inactive).

**Q.** What about the EC50 [5] of the same compound?
**A.** Its EC50 is > 53 µM (inactive).

**Q.** And the IC50 (cells)?
**A.** Its IC50 is 4.4 µM (active).

**Q.** For `COc1ccc(OC(=O)c2cc(S(=O)(=O)N3CCCC3)ccc2Cl)cc1`, which IC50 [1] is on record?
**A.** Its IC50 is 63 µM (active).

**Q.** Which AC50 (Cytochrome P450 2C19; read-out: AC50) does the source give for `CCN1C(=O)C(O)(CC(=O)/C=C/C=C/c2ccccc2)c2ccccc21` (configuration not stated) here?
**A.** Its AC50 is 35.5 µM (inconclusive).

**Q.** And the AC50 (Cytochrome P450 2C9)?
**A.** Its AC50 is 0.141 µM (inconclusive).

**Q.** What about the AC50 (Cytochrome P450 3A4) of the same compound?
**A.** The AC50 was 17.8 µM (inconclusive).

**Q.** Which AC50 (Cytochrome P450 2D6) does the source give for `O=C(CCNc1cccc(Cl)c1)c1cccs1` here?
**A.** Its AC50 is 22.4 µM (inconclusive).

**Q.** What about the AC50 (Cytochrome P450 2C9) of the same compound?
**A.** Its AC50 is 20 µM (inconclusive).

**Q.** And the IC50 (cells)?
**A.** Its IC50 is 20 µM (active).

**Q.** With `COc1ccc(COC(=O)N/N=C2/C[C@@H](O)[C@@H](O)[C@@H]3[C@@H]4C(=O)N(c5cccc(Oc6ccccc6)c5)C(=O)[C@H]4CC[C@H]23)cc1` as the compound, how does the AC50 (Cytochrome P450 2D6) read?
**A.** The AC50 was 2.51 µM (inconclusive).

**Q.** Which AC50 (Cytochrome P450 2C19) does the source give for `CCCC1CCC(c2ccc(C(N)=O)cc2)CC1` (configuration not stated) here?
**A.** The AC50 was “inconclusive”.

**Q.** What about the AC50 (Cytochrome P450 2C9) of the same compound?
**A.** Its AC50 is 0.0158 µM (inconclusive).

**Q.** For `CCN(CC)c1ccc(NC(=O)COC(=O)CCC(=O)c2cccs2)cc1`, which IC50 [1] is on record?
**A.** Its IC50 is 74.4 µM (active).

**Q.** Which IC50 [1] does the source give for `O=C(NN=Cc1ccc(O)cc1O)c1ccccc1NS(=O)(=O)c1cccs1` here?
**A.** The IC50 was 110 µM (active).

**Q.** Which results are given for `O=C(c1cn(-c2ccccc2)nc1-c1cccs1)N1CCOCC1`?
**A.** AC50 (Cytochrome P450 2C19; read-out: AC50): 39.8 µM (inconclusive); AC50 (Cytochrome P450 2C9): 39.8 µM (inconclusive)

**Q.** With `COc1cc(CNCc2cccs2)ccc1OCC(=O)NC(C)(C)C` as the compound, how does the AC50 (Cytochrome P450 2D6) read?
**A.** The AC50 was 10 µM (inconclusive).

**Q.** Which AC50 (Cytochrome P450 2C19; read-out: AC50) does the source give for `O=C(CNC(=O)c1ccccn1)N/N=C/c1ccccc1` here?
**A.** The AC50 was 17.8 µM (inconclusive).

**Q.** For `COc1cc(/C=N/NC(=O)c2ccc(N3CCCC3=O)cc2)ccc1O`, which IC50 [1] is on record?
**A.** The IC50 was 30.8 µM (active).

**Q.** With `COc1cccc(/C=N\NC(=O)c2cc(OCC(F)(F)F)ccc2OCC(F)(F)F)c1` as the compound, how does the AC50 (Cytochrome P450 2C19; read-out: AC50) read?
**A.** The AC50 was 0.891 µM (inconclusive).

**Q.** What about the AC50 (Cytochrome P450 3A4) of the same compound?
**A.** Its AC50 is 35.5 µM (inconclusive).

**Q.** For `CCSc1ncc(/C=N/Nc2ccc(F)cc2)n1C`, which AC50 (Cytochrome P450 2C19; read-out: AC50) is on record?
**A.** The AC50 was 0.0794 µM (inconclusive).

**Q.** And the AC50 (Cytochrome P450 3A4)?
**A.** Its AC50 is 1.58 µM (inconclusive).
